{"source": "PubChem BioAssay AID1259409", "about": "(Chemical Carcinogenesis Research Information System (CCRIS), 2018)", "origin": "cited, not measured here", "test_system": "rodent chemically induced tumor inhibition, incidence and multiplicity", "assay": "CCRIS tumor inhibitor studies", "details": "Promoter: NONE USED"}
{"compound": "CCO", "values": [{"measurement": "tumour outcome (control, treated, inhibition, significance)", "setting": "Carcinogen: AZOXYMETHANE, 25843-45-2, Dose [Inhibitor]: 33% OF TOTAL CALORIES OF DIET GIVEN CONTINUOUSLY FOR 3 WK PRIOR TO CARCINOGEN DOSE AND 10 WK DURING INDUCTION (STUDY DUR, Route [Inhibitor]: ORAL, Species: RAT, Strain/Sex: F344/MALE, Target Tissue: Type of Lesion: COLON: TUMOR, Dose [Carcinogen]: 14 MG/KG 1/WK FOR 10 WK", "result": "91%, 5%, 94%, not calculated"}, {"measurement": "tumour outcome (control, treated, inhibition, significance)", "setting": "Carcinogen: AZOXYMETHANE, 25843-45-2, Dose [Inhibitor]: 33% OF TOTAL CALORIES OF DIET GIVEN CONTINUOUSLY FOR 3 WK PRIOR TO CARCINOGEN DOSE AND 10 WK DURING INDUCTION (STUDY DUR, Route [Inhibitor]: ORAL, Species: RAT, Strain/Sex: F344/MALE, Target Tissue: Type of Lesion: EAR CANAL: TUMOR, Dose [Carcinogen]: 14 MG/KG 1/WK FOR 10 WK", "result": "9%, 0%, 100%, not calculated"}, {"measurement": "tumour outcome (control, treated, inhibition, significance)", "setting": "Carcinogen: AZOXYMETHANE, 25843-45-2, Dose [Inhibitor]: 33% OF TOTAL CALORIES OF DIET GIVEN CONTINUOUSLY FOR 3 WK PRIOR TO CARCINOGEN DOSE AND 10 WK DURING INDUCTION (STUDY DUR, Route [Inhibitor]: ORAL, Species: RAT, Strain/Sex: F344/MALE, Target Tissue: Type of Lesion: SMALL INTESTINE: TUMOR, Dose [Carcinogen]: 14 MG/KG 1/WK FOR 10 WK", "result": "74%, 0%, 100%, p<0.0001"}, {"measurement": "tumour outcome (control, treated, inhibition, significance)", "setting": "Carcinogen: ETHYL CARBAMATE, 51-79-6, Dose [Inhibitor]: 0, 12% ADMINISTERED WITH CARCINOGEN IN DRINKING WATER FOR 41 WK (STUDY DURATION: 41 WK), Route [Inhibitor]: ORAL, Species: MOUSE, Strain/Sex: C3H/MALE, Target Tissue: Type of Lesion: LIVER: HEMANGIOENDOTHELIOMA, Dose [Carcinogen]: 20 MG/KG IN DRINKING WATER FOR 41 WK", "result": "14%, 14%, 0%, not calculated"}, {"measurement": "tumour outcome (control, treated, inhibition, significance)", "setting": "Carcinogen: ETHYL CARBAMATE, 51-79-6, Dose [Inhibitor]: 0, 12% ADMINISTERED WITH CARCINOGEN IN DRINKING WATER FOR 41 WK (STUDY DURATION: 41 WK), Route [Inhibitor]: ORAL, Species: MOUSE, Strain/Sex: C3H/MALE, Target Tissue: Type of Lesion: LIVER: HEMANGIOSARCOMA, Dose [Carcinogen]: 10 MG/KG IN DRINKING WATER FOR 41 WK", "result": "5%, 0%, 100%, not significant"}, {"measurement": "tumour outcome (control, treated, inhibition, significance)", "setting": "Carcinogen: ETHYL CARBAMATE, 51-79-6, Dose [Inhibitor]: 0, 12% ADMINISTERED WITH CARCINOGEN IN DRINKING WATER FOR 41 WK (STUDY DURATION: 41 WK), Route [Inhibitor]: ORAL, Species: MOUSE, Strain/Sex: C3H/MALE, Target Tissue: Type of Lesion: LIVER: HEMANGIOSARCOMA, Dose [Carcinogen]: 20 MG/KG IN DRINKING WATER FOR 41 WK", "result": "24%, 0%, 100%, not significant"}, {"measurement": "tumour outcome (control, treated, inhibition, significance)", "setting": "Carcinogen: ETHYL CARBAMATE, 51-79-6, Dose [Inhibitor]: 0, 12% ADMINISTERED WITH CARCINOGEN IN DRINKING WATER FOR 41 WK (STUDY DURATION: 41 WK), Route [Inhibitor]: ORAL, Species: MOUSE, Strain/Sex: C3H/MALE, Target Tissue: Type of Lesion: LIVER: HEPATOCELLULAR ADENOMA, Dose [Carcinogen]: 10 MG/KG IN DRINKING WATER FOR 41 WK", "result": "57%, 24%, 58%, not significant"}, {"measurement": "tumour outcome (control, treated, inhibition, significance)", "setting": "Carcinogen: ETHYL CARBAMATE, 51-79-6, Dose [Inhibitor]: 0, 12% ADMINISTERED WITH CARCINOGEN IN DRINKING WATER FOR 41 WK (STUDY DURATION: 41 WK), Route [Inhibitor]: ORAL, Species: MOUSE, Strain/Sex: C3H/MALE, Target Tissue: Type of Lesion: LIVER: HEPATOCELLULAR ADENOMA, Dose [Carcinogen]: 20 MG/KG IN DRINKING WATER FOR 41 WK", "result": "48%, 57%, -19%, not significant"}, {"measurement": "tumour outcome (control, treated, inhibition, significance)", "setting": "Carcinogen: ETHYL CARBAMATE, 51-79-6, Dose [Inhibitor]: 0, 12% ADMINISTERED WITH CARCINOGEN IN DRINKING WATER FOR 41 WK (STUDY DURATION: 41 WK), Route [Inhibitor]: ORAL, Species: MOUSE, Strain/Sex: C3H/MALE, Target Tissue: Type of Lesion: LIVER: HEPATOCELLULAR CARCINOMA, Dose [Carcinogen]: 10 MG/KG IN DRINKING WATER FOR 41 WK", "result": "5%, 0%, 100%, not significant"}, {"measurement": "tumour outcome (control, treated, inhibition, significance)", "setting": "Carcinogen: ETHYL CARBAMATE, 51-79-6, Dose [Inhibitor]: 0, 12% ADMINISTERED WITH CARCINOGEN IN DRINKING WATER FOR 41 WK (STUDY DURATION: 41 WK), Route [Inhibitor]: ORAL, Species: MOUSE, Strain/Sex: C3H/MALE, Target Tissue: Type of Lesion: LIVER: HEPATOCELLULAR CARCINOMA, Dose [Carcinogen]: 20 MG/KG IN DRINKING WATER FOR 41 WK", "result": "14%, 5%, 64%, not significant"}, {"measurement": "tumour outcome (control, treated, inhibition, significance)", "setting": "Carcinogen: ETHYL CARBAMATE, 51-79-6, Dose [Inhibitor]: 0, 12% ADMINISTERED WITH CARCINOGEN IN DRINKING WATER FOR 41 WK (STUDY DURATION: 41 WK), Route [Inhibitor]: ORAL, Species: MOUSE, Strain/Sex: C3H/MALE, Target Tissue: Type of Lesion: LUNG: ALVEOLAR ADENOMA, Dose [Carcinogen]: 10 MG/KG IN DRINKING WATER FOR 41 WK", "result": "19%, 0%, 100%, not significant"}, {"measurement": "tumour outcome (control, treated, inhibition, significance)", "setting": "Carcinogen: ETHYL CARBAMATE, 51-79-6, Dose [Inhibitor]: 0, 12% ADMINISTERED WITH CARCINOGEN IN DRINKING WATER FOR 41 WK (STUDY DURATION: 41 WK), Route [Inhibitor]: ORAL, Species: MOUSE, Strain/Sex: C3H/MALE, Target Tissue: Type of Lesion: LUNG: ALVEOLAR ADENOMA, Dose [Carcinogen]: 20 MG/KG IN DRINKING WATER FOR 41 WK", "result": "48%, 38%, 21%, not significant"}, {"measurement": "tumour outcome (control, treated, inhibition, significance)", "setting": "Carcinogen: ETHYL CARBAMATE, 51-79-6, Dose [Inhibitor]: 0, 12% ADMINISTERED WITH CARCINOGEN IN DRINKING WATER FOR 41 WK (STUDY DURATION: 41 WK), Route [Inhibitor]: ORAL, Species: MOUSE, Strain/Sex: C3H/MALE, Target Tissue: Type of Lesion: LUNG: CLARA-CELL ADENOMA, Dose [Carcinogen]: 10 MG/KG IN DRINKING WATER FOR 41 WK", "result": "52%, 24%, 54%, not significant"}, {"measurement": "tumour outcome (control, treated, inhibition, significance)", "setting": "Carcinogen: ETHYL CARBAMATE, 51-79-6, Dose [Inhibitor]: 0, 12% ADMINISTERED WITH CARCINOGEN IN DRINKING WATER FOR 41 WK (STUDY DURATION: 41 WK), Route [Inhibitor]: ORAL, Species: MOUSE, Strain/Sex: C3H/MALE, Target Tissue: Type of Lesion: LUNG: CLARA-CELL ADENOMA, Dose [Carcinogen]: 20 MG/KG IN DRINKING WATER FOR 41 WK", "result": "57%, 38%, 33%, not significant"}, {"measurement": "tumour outcome (control, treated, inhibition, significance)", "setting": "Carcinogen: ETHYL CARBAMATE, 51-79-6, Dose [Inhibitor]: 0, 20% SIMULTANEOUSLY WITH CARCINOGEN 1/D FOR 8 WK (STUDY DURATION: 16 WK), Route [Inhibitor]: GAVAGE, Species: MOUSE, Strain/Sex: NMRI/FEMALE, Target Tissue: Type of Lesion: LUNG: ADENOMA, Dose [Carcinogen]: 18 MG/KG IN 20% ETHANOL 1/D FOR 8 WK (CONTROL GROUP ADMINISTERED CARCINOGEN IN WATER)", "result": "65%, 76%, -17%, not significant"}, {"measurement": "tumour outcome (control, treated, inhibition, significance)", "setting": "Carcinogen: ETHYL CARBAMATE, 51-79-6, Dose [Inhibitor]: 0, 20% SIMULTANEOUSLY WITH CARCINOGEN 1/D FOR 8 WK (STUDY DURATION: 16 WK), Route [Inhibitor]: GAVAGE, Species: MOUSE, Strain/Sex: NMRI/FEMALE, Target Tissue: Type of Lesion: LUNG: ADENOMA, Dose [Carcinogen]: 36 MG/KG IN 20% ETHANOL 1/D FOR 8 WK (CONTROL GROUP ADMINISTERED CARCINOGEN IN WATER)", "result": "96%, 83%, 14%, not significant"}, {"measurement": "tumour outcome (control, treated, inhibition, significance)", "setting": "Carcinogen: ETHYL CARBAMATE, 51-79-6, Dose [Inhibitor]: 0, 20% SIMULTANEOUSLY WITH CARCINOGEN 1/D FOR 8 WK (STUDY DURATION: 16 WK), Route [Inhibitor]: GAVAGE, Species: MOUSE, Strain/Sex: NMRI/FEMALE, Target Tissue: Type of Lesion: LUNG: ADENOMA, Dose [Carcinogen]: 90 MG/KG IN 20% ETHANOL 1/D FOR 8 WK (CONTROL GROUP ADMINISTERED CARCINOGEN IN WATER)", "result": "100%, 100%, 0%, not significant"}]}
